{
  "source": "ChEMBL document CHEMBL1201862",
  "about": "“PubChem BioAssay data set” (2004)",
  "key": {"Saccharomyces cerevisiae": {"tested_on": "Saccharomyces cerevisiae", "assay": "NALP1 inhibitor project selectivity study, Caspase-1/ASC signal blockade IC50 in S. cerevisiae (AID 488863)", "format": "functional, organism-based"}, "[1]": {"assay": "cytotoxicity toward NIH3T3 fibroblasts, dose response, counter-screen, cell-based, ATP luminescence, mouse fibroblasts (AID 2010);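 also: cells exposed to compound for about 90 hours before reading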", "format": "functional"}, "[2]": {"assay": "inhibitors of intracellular T. cruzi replication, confirmation, NIH3T3 host cells, beta-gal luminescence (AID 2044);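 also: luminescent beta-galactosidase reporter signal from transgenic T. cruzi replicating inside host cells; inhibitors lower the luminescence signal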", "format": "functional, cell-based"}, "[3]": {"molecular_target": "Heat shock protein HSP 90-alpha (Homo sapiens, UniProt P07900)", "format": "functional, organism-based"}, "[4]": {"assay": "growth suppression of beta-catenin-knockout colon cells, dose response, cell-based, HCT116, human colon tumor (AID 1045);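 also: HCT116 colon tumor cells with beta catenin knocked out; cells exposed to compound for 60 hours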", "format": "functional"}, "[5]": {"assay": "growth suppression of PTEN-null colon cells, dose response, cell-based, HCT116 PTEN knockout (AID 1047);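 also: HCT116 colon tumor cells with PTEN knocked out; cells exposed to compound for 60 hours before readout; potency for loss of cell viability measured by luminescence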", "format": "functional"}, "[6]": {"molecular_target": "NACHT, LRR and PYD domains-containing protein 1 (Homo sapiens, UniProt Q9C000)", "sequence (Q9C000 1-1212 limits assumed)": "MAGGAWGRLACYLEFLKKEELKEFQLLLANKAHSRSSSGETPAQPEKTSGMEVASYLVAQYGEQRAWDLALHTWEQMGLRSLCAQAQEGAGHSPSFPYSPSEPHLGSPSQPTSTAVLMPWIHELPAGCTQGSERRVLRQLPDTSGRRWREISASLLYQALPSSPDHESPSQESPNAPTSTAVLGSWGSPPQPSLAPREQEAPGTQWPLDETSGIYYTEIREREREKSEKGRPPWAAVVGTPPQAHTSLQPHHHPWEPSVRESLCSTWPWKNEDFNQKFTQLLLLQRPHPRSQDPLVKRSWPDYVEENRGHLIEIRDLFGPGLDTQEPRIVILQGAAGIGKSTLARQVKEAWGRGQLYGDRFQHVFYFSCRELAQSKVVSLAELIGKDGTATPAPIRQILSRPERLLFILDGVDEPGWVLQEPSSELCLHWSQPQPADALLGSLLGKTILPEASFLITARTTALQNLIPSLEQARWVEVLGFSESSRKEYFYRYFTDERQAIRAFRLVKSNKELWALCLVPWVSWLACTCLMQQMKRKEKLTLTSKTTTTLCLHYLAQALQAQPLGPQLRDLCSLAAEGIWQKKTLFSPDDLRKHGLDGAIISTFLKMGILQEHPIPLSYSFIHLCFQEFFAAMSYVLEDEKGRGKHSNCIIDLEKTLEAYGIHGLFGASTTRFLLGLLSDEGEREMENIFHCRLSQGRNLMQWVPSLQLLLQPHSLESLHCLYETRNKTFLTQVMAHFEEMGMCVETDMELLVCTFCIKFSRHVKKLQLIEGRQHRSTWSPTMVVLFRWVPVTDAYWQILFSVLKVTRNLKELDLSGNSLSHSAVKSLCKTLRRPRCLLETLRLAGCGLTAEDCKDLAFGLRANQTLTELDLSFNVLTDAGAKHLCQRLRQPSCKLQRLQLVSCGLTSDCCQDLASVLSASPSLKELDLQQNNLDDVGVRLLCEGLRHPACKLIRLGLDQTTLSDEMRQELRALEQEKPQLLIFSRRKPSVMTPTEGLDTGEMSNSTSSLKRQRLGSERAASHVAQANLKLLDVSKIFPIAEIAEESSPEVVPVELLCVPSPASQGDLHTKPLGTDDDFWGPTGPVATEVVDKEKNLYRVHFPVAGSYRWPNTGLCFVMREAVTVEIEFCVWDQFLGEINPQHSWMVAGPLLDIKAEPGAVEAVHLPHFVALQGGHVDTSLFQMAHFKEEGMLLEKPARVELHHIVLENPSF", "sequence (Q9C000 1213-1473 limits assumed)": "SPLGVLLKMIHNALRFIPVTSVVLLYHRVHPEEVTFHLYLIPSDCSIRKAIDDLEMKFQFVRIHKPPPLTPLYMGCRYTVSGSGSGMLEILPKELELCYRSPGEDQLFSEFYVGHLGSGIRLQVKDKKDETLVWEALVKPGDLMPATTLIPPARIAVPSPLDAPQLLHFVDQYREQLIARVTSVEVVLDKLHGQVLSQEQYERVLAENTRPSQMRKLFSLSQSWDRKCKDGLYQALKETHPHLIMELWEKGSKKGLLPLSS", "assay": "NALP1 inhibitors in yeast, dose response, luminescent (AID 488860)", "format": "functional"}, "[7]": {"assay": "NIH-3T3 fibroblast cytotoxicity, dose response, cytotoxicity control, cell-based, fluorescence, Alamar Blue, secondary assay (AID 2327);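 also: NIH-3T3 mouse fibroblasts cultured with fluconazole at 8 µg/mL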", "format": "functional"}, "[8]": {"assay": "C. albicans growth with fluconazole, confirmation, fluorescence, retest (AID 2467)", "format": "functional, cell-based"}, "[9]": {"molecular_target": "T1, Alkaline phosphatase, tissue-nonspecific isozyme (Homo sapiens, UniProt P05186)", "T1 sequence (P05186 whole entry)": "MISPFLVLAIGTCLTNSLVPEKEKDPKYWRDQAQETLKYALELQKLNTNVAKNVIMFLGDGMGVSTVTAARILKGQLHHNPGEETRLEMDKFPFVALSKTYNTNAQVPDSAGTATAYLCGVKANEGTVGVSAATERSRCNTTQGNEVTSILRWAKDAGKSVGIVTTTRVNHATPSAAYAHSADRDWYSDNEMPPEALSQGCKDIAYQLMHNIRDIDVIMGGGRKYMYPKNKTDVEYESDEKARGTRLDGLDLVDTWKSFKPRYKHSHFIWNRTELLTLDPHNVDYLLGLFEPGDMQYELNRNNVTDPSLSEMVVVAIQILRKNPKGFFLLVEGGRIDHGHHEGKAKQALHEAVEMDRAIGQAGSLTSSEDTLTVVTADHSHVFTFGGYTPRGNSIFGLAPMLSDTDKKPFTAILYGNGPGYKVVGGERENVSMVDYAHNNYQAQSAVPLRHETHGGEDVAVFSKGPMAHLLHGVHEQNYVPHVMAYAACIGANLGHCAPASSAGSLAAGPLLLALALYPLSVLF", "assay": "human TNAP enzyme inhibitors, SAR follow-up, biochemical, luminescent, dose response (AID 1056)"}, "Phosphomannomutase 2": {"molecular_target": "T2, Phosphomannomutase 2 (Homo sapiens, UniProt O15305)", "T2 sequence (O15305 whole entry)": "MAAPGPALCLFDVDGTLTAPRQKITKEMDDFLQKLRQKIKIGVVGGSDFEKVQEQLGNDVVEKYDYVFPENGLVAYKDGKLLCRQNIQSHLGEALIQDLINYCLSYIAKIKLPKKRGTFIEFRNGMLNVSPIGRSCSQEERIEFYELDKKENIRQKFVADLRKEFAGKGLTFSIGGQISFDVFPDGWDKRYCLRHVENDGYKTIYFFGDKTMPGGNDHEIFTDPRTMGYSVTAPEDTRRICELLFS", "assay": "Counter screen SAR assay for PMM2 inhibitors via a fluorescence intensity assay. [Related pubchem assays (depositor defined):AID1545, AID1574]"}, "[10]": {"molecular_target": "T3, Mannose-6-phosphate isomerase (Homo sapiens, UniProt P34949)", "T3 sequence (P34949 whole entry)": "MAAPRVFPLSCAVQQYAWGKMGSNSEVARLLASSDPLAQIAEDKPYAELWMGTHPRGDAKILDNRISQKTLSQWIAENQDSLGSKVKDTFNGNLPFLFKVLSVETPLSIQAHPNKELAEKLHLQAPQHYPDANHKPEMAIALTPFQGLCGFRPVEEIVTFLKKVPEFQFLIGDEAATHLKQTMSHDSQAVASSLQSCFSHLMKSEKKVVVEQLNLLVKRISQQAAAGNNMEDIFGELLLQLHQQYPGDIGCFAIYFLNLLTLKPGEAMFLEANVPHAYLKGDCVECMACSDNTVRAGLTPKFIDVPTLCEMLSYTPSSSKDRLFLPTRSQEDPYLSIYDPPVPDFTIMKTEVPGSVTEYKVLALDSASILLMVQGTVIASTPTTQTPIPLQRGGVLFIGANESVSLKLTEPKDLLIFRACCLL", "assay": "Confirmation of compounds inhibiting phosphomannose isomerase (PMI) via a fluorescence intensity assay using a high concentration of mannose 6-phosphate. [Related pubchem assays (depositor defined):AID1209, AID1220, AID1545, AID1553, AID1620]"}, "[11]": {"molecular_target": "Phosphoethanolamine/phosphocholine phosphatase (Homo sapiens, UniProt Q8TCT1)", "sequence (Q8TCT1 whole entry)": "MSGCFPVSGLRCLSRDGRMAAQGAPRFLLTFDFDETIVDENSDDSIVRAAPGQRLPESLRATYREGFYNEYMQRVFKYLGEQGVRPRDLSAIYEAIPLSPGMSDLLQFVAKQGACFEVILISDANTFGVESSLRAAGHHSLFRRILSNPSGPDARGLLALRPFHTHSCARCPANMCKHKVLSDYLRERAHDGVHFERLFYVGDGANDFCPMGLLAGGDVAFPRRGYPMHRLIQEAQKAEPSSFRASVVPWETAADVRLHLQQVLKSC", "assay": "SAR assay for compounds that inhibit PHOSPHO1. [Related pubchem assays (depositor defined):AID1545, AID1565, AID1574]"}, "[12]": {"molecular_target": "T4, Rac GTPase-activating protein 1 (Homo sapiens, UniProt Q9H0H5)", "T4 sequence (Q9H0H5 whole entry)": "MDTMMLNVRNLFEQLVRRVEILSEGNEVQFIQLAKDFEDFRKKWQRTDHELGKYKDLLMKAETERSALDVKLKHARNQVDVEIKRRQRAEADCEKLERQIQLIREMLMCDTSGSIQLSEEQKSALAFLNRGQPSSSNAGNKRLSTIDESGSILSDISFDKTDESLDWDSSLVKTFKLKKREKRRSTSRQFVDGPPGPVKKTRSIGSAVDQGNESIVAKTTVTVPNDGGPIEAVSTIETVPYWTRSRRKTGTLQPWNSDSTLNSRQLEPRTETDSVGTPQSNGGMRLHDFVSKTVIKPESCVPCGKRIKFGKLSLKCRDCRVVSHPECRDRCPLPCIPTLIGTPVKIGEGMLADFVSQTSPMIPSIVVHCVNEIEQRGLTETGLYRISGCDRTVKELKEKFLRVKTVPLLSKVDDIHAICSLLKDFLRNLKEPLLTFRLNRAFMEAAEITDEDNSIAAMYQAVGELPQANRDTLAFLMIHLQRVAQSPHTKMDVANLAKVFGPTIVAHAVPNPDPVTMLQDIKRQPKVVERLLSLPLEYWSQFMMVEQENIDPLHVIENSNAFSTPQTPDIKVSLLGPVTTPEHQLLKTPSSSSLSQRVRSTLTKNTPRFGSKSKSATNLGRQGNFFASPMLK", "assay": "MgcRacGAP GTPase-activating activity inhibitors, confirmation, biochemical, ADP Hunter fluorescence, primary and confirmatory (AID 624330)", "format": "functional"}, "[13]": {"assay": "HeLa cell cytotoxicity, dose response, cytotoxicity control for MgcRacGAP inhibitor project (AID 624300)", "format": "functional"}, "Beta-galactosidase": {"molecular_target": "Beta-galactosidase (Escherichia coli, UniProt Q8VNN2)", "sequence (Q8VNN2 whole entry)": "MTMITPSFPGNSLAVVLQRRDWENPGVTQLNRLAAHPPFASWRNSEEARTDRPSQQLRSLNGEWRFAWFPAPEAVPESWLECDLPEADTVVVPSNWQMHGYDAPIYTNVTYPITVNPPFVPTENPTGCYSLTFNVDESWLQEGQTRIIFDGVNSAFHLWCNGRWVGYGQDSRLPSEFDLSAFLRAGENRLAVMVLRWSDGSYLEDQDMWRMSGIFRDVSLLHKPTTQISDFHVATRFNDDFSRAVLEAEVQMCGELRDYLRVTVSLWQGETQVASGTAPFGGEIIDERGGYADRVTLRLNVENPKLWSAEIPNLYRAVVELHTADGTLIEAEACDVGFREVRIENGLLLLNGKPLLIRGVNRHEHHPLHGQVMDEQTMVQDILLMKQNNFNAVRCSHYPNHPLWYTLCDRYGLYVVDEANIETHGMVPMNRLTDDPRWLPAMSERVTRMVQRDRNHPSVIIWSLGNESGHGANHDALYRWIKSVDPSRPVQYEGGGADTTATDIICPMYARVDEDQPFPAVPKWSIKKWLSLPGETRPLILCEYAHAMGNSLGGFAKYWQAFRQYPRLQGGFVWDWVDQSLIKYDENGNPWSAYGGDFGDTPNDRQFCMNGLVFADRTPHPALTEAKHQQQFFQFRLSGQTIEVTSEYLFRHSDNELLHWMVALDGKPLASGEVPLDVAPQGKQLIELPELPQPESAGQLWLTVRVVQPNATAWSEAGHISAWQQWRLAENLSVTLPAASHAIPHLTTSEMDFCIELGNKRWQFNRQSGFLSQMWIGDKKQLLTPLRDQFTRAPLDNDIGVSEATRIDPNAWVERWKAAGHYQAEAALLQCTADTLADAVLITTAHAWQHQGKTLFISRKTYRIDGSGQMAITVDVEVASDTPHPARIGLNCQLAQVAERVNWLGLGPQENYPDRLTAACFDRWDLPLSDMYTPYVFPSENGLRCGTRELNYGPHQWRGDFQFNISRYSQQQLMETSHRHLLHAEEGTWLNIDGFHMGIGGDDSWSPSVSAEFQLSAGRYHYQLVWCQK", "assay": "beta-galactosidase enzyme inhibitors and activators, dose response, artefact control for CCR6 antagonist project, biochemical, E. coli enzyme, set 3 (AID 504712)", "format": "functional"}, "Nonstructural protein 1": {"molecular_target": "Nonstructural protein 1 (Influenza A virus, UniProt Q194T2)", "sequence (Q194T2 whole entry)": "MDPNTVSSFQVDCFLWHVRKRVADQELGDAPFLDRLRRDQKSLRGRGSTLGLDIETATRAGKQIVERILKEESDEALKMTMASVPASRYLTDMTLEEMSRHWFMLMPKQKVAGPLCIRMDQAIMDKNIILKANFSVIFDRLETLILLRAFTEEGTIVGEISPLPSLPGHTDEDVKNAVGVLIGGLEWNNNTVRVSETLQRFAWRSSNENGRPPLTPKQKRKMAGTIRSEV", "format": "functional, Influenza A virus (A/California/07/2009(H1N1))"}, "Hexokinase HKDC1": {"molecular_target": "T5, Hexokinase HKDC1 (Homo sapiens, UniProt Q2TB90)", "T5 sequence (Q2TB90 whole entry)": "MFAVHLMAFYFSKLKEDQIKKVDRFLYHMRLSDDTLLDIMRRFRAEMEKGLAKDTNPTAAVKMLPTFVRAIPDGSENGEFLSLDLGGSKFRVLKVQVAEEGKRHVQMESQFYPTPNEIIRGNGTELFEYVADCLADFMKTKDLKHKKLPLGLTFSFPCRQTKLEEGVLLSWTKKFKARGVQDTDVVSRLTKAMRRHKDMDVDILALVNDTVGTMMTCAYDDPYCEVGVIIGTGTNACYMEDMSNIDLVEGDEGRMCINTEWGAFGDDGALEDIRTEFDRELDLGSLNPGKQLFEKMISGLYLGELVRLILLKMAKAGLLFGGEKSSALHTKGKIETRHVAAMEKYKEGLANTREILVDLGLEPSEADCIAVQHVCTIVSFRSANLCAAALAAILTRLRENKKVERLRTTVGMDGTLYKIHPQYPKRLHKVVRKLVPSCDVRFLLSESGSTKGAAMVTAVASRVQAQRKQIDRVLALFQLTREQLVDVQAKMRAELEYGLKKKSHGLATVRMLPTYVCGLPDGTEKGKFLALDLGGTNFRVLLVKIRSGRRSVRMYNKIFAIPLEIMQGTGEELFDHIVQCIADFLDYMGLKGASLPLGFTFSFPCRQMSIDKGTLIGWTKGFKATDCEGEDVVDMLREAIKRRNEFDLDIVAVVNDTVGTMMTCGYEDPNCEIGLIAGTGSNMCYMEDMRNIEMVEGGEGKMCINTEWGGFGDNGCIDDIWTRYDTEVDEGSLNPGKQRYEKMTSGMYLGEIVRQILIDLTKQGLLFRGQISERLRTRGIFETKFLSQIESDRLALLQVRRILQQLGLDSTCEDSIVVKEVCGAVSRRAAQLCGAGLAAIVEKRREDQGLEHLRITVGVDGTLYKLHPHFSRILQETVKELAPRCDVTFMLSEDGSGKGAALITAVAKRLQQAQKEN", "assay": "HKDC1 hexokinase inhibitors, dose response, biochemical, W721R variant (AID 504729)", "format": "functional"}},
  "note": "The source made the active and inactive calls.",
  "data": [
    {"compound": "Cc1ccc(-n2nnnc2C(Cl)c2nnnn2-c2ccc(C)cc2)cc1", "values": [
      {"measurement": "IC50", "setting": "Saccharomyces cerevisiae", "result": "6.59 µM (active)"},
      {"measurement": "EC50", "setting": "[1]", "result": "> 60 µM (not active)"},
      {"measurement": "EC50", "setting": "[2]", "result": "3.31 µM (active)"},
      {"measurement": "AC50", "setting": "[3]", "result": "0.635 µM (active)"},
      {"measurement": "EC50", "setting": "[4]", "result": "17.5 µM (active)"},
      {"measurement": "EC50", "setting": "[5]", "result": "17.6 µM (active)"},
      {"measurement": "IC50", "setting": "[6]", "result": "11 µM (active)"},
      {"measurement": "EC50", "setting": "[7]", "result": "> 160 µM (inactive)"},
      {"measurement": "EC50", "setting": "[8]", "result": "> 38 µM (not active)"}
    ]},
    {"compound": "COC(=O)c1cccc(-n2sc3ccccc3c2=O)c1", "values": [
      {"measurement": "IC50", "setting": "[9]", "result": "> 100 µM (inactive)"},
      {"measurement": "IC50", "setting": "Phosphomannomutase 2", "result": "15.4 µM (active)"},
      {"measurement": "IC50", "setting": "[10]", "result": "14 µM (active)"},
      {"measurement": "IC50", "setting": "[11]", "result": "0.824 µM (active)"},
      {"measurement": "IC50", "setting": "[12]", "result": "36.9 µM (active)"},
      {"measurement": "CC50", "setting": "[13]", "result": "100 µM (active)"}
    ]},
    {"compound": "CCOC(=O)C1=C(Cc2ccc(OC)cc2)C(=O)c2ccccc2C1=O", "values": [
      {"measurement": "IC50", "setting": "Beta-galactosidase", "result": "> 66.6 µM (inactive)"},
      {"measurement": "IC50", "setting": "Nonstructural protein 1", "result": "42.9 µM (active)"},
      {"measurement": "IC50", "setting": "Hexokinase HKDC1", "result": "7.57 µM (active)"}
    ]}
  ]
}
